This is an account of results in ChEMBL document CHEMBL1629708, “Discovery of dihydrothieno- and dihydrofuropyrimidines as potent pan Akt inhibitors” (Bioorg Med Chem Lett, 2010).

The target in series [1] is T1, RAC-alpha serine/threonine-protein kinase (Homo sapiens, UniProt P31749). The experiment in a line: Inhibition of Akt in human LNCaP cell assessed as inhibition of PRAS40 phosphorylation. In kind it is cell-based.
The nature of series [2]: Inhibition of PKA.
Series [3] has as its target T1, RAC-alpha serine/threonine-protein kinase. The series can be described thus: Inhibition of Akt1.
The nature of series [4]: Ratio of IC50 for Akt1 to IC50 for Akt3.
A short description of series [5]: Inhibition of PKA at 1 uM.
Series [6] deals with Ribosomal protein S6 kinase beta-1 (Homo sapiens) (UniProt P23443). The series can be described thus: Inhibition of p70S6K at 1 uM.
The target in series [7] is Protein kinase C eta type (Homo sapiens) (UniProt P24723). The experiment in a line: Inhibition of PKCeta at 1 uM.
Series [8] relates to Plasma. The series can be described thus: Increase in plasma drug level in nude mouse xenografted with human U87 cells at 50 to 100 mg/kg, po after 1 hr. Format: ADME, organism-based, U-87MG ATCC. Further details: dose 50-100 mg/kg, route oral; call rule not given here. The conditions noted are these: in vivo. (In general: A xenograft is tissue or cells of one species grown in another, often human tumour cells in immunodeficient mice.)

The subject of series [9] is PC-3. The experiment in a line: Antitumor activity against human PC3 prostate tumor cell xenografted in nude mouse assessed as inhibition of tumor growth at 100 mg/kg, po qd for 14 days. In kind it is functional. The following applies: PC-3, 336 h.
For series [10], the system named is PC-3. The series can be described thus: Antitumor activity against human PC3 prostate tumor cell xenografted in nude mouse assessed as inhibition of tumor growth at 50 mg/kg, po qd for 14 days. In kind it is functional. Also noted: scale not given: the % may be the effect or the level left.
A short description of series [11]: Plasma protein binding in rat. Format: ADME, cell-free. The conditions noted are these: read-out: PPB (converted).
Series [12] in a line: Bioavailability in rat at 50 mg/kg, po. Format: ADME, organism-based. The following applies: in vivo.
The subject of series [13] is Plasma. The experiment in a line: Increase in plasma drug level in nude mouse xenografted with human U87 cells at 50 to 100 mg/kg, po after 4 hrs. The conditions noted are these: in vivo. Further details: dose 50-100 mg/kg, route oral. In kind it is ADME, organism-based, U-87MG ATCC.
Series [14] deals with PC-3. The experiment in a line: Antitumor activity against human PC3 prostate tumor cell xenografted in nude mouse assessed as inhibition of tumor growth at 200 mg/kg, po qd for 14 days. In kind it is functional. Further details: scale not given: the % may be the effect or the level left.
Series [15] can be described thus: Inhibition of PRAS40 phosphorylation in human U87 cells xenografted in mouse at 50 mg/kg, po after 4 hr. The conditions noted are these: U-87 MG. Format: functional, U-87MG ATCC.
Series [16] in a line: Inhibition of PRAS40 phosphorylation in human U87 cells xenografted in mouse at 50 mg/kg, po after 1 hr. The conditions noted are these: U-87 MG. Format: functional, U-87MG ATCC.
Series [17] relates to PC-3. The series can be described thus: Antitumor activity against human PC3 prostate tumor cell xenografted in nude mouse assessed as inhibition of tumor growth at 25 mg/kg, po qd for 14 days. In kind it is functional. Further details: scale not given: the % may be the effect or the level left.
A short description of series [18]: Inhibition of PRAS40 phosphorylation in human U87 cells xenografted in mouse at 200 mg/kg, po after 4 hrs. Format: functional, U-87MG ATCC. The following applies: U-87 MG.
In series [19] the test system is Plasma. The experiment in a line: Increase in plasma drug level in nude mouse xenografted with human U87 cells at 200 mg/kg, po after 4 hrs. In kind it is ADME, organism-based, U-87MG ATCC. Further details: dose 200 mg/kg, route oral. The following applies: in vivo.
Series [20] can be described thus: Plasma concentration in rat at 50 mg/kg, po. Format: ADME, organism-based. Further details: dose 50 mg/kg, route oral.
In series [21] the test system is Plasma. The experiment in a line: Increase in plasma drug level in nude mouse xenografted with human U87 cells at 200 mg/kg, po after 1 hr. In kind it is ADME, organism-based, U-87MG ATCC. Also noted: dose 200 mg/kg, route oral. The following applies: in vivo.
The nature of series [22]: Clearance in rat at 5 mg/kg, iv. Further details: dose 5 mg/kg, route intravenous. In kind it is ADME, organism-based. The conditions noted are these: in vivo.
Series [23] is described as follows: Inhibition of PRAS40 phosphorylation in human U87 cells xenografted in mouse at 200 mg/kg, po after 12 hrs. In kind it is functional, U-87MG ATCC. The following applies: U-87 MG.
The nature of series [24]: Ratio of IC50 for Akt1 to IC50 for Akt2.

T1 sequence (P31749 whole entry): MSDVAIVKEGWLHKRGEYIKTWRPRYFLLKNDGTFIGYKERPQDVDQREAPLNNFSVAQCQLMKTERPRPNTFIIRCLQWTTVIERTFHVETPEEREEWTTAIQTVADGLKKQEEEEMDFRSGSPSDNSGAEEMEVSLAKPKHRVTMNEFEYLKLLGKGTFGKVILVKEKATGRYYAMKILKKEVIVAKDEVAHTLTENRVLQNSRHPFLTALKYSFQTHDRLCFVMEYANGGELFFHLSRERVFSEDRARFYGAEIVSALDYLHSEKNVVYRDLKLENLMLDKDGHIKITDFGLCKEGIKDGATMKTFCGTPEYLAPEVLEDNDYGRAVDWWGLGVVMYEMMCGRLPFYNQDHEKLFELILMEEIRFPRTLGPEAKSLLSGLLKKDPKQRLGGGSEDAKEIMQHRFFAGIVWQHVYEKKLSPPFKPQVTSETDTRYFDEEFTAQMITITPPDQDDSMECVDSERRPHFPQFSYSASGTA
Ribosomal protein S6 kinase beta-1 (Homo sapiens), sequence (P23443 whole entry, looked up): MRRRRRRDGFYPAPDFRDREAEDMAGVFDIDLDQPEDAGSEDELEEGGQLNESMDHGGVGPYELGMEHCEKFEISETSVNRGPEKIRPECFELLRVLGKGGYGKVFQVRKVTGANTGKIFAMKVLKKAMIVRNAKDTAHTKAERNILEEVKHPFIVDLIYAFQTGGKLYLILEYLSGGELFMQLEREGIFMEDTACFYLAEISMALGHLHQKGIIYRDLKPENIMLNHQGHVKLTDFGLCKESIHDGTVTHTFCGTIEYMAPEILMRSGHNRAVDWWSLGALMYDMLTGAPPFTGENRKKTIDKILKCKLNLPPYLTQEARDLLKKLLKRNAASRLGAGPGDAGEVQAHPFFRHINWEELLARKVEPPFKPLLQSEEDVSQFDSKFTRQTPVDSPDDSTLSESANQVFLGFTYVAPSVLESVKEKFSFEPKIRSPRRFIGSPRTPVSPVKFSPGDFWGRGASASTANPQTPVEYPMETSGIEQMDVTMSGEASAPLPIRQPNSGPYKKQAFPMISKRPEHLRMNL
Protein kinase C eta type (Homo sapiens), sequence (P24723 whole entry): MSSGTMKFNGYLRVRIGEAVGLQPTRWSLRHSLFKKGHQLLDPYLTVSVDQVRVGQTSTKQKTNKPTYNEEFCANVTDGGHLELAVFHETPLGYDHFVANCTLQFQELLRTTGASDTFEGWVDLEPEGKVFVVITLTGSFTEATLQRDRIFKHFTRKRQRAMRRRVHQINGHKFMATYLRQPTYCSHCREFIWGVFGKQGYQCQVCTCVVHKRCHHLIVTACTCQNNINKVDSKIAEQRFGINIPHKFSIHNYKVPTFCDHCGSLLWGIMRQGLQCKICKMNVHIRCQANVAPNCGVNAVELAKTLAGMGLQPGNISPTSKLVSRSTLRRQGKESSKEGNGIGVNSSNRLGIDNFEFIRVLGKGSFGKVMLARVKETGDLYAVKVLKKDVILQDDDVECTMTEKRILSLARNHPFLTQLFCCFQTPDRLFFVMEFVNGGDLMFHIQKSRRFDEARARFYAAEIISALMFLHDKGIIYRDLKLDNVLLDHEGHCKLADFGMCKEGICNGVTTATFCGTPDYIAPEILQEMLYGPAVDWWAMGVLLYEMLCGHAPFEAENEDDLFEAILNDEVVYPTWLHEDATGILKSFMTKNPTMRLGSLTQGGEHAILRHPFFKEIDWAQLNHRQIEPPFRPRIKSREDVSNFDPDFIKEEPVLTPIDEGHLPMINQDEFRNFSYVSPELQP

The IC50 is the concentration needed to halve the response being measured. On to `C[C@@H]1SCc2ncnc(N3CCN(C(=O)C(Cc4ccc(Cl)c(F)c4)CC4(N)CC4)CC3)c21` (stereo partly specified), for which the values for the IC50 in series [1], in series [2] and in series [3] were 0.25 µM, 0.03 µM and 0.003 µM, respectively.

In the case of `C[C@@H]1SCc2ncnc(N3CCN(C(=O)C(Cc4ccc(Cl)cc4)CN4CCCC4)CC3)c21` (stereo partly specified), the IC50 in [1] is 0.178 µM; in [2], 0.075 µM; in series [3], 0.003 µM.

`CC1SCc2ncnc(N3CCN(C(=O)[C@H](N)Cc4ccc(Cl)cc4)CC3)c21` (stereo partly specified): the IC50 in series [1] was 0.31 µM; in series [2], 0.031 µM; in series [3] it was 0.004 µM.

On to `CC(C)NCC(Cc1ccc(F)c(F)c1)C(=O)N1CCN(c2ncnc3c2[C@H](C)SC3)CC1` (stereo partly specified), for which the concentration for half-maximal inhibition (IC50) in [1] was 0.759 µM; in [2], 0.285 µM; in series [3], 0.01 µM.

For `C[C@@H]1SCc2ncnc(N3CCN(C(=O)C(Cc4ccc(Cl)cc4)CC(C)(C)N)CC3)c21` (stereo partly specified), the values for the IC50 in [1], in series [2] and in [3] were 0.438 µM, 0.073 µM and 0.006 µM, respectively.

Regarding `C[C@@H]1SCc2ncnc(N3CCN(C(=O)[C@H](N)Cc4ccc(F)cc4)CC3)c21`, the values for the IC50 in series [1], in [2] and in series [3] were 1.59 µM, 0.104 µM and 0.011 µM, respectively.

Turning to `Cc1ccc(CC(CNC(C)C)C(=O)N2CCN(c3ncnc4c3[C@H](C)OC4)CC2)cc1` (stereo partly specified), the half-inhibitory concentration (IC50) in series [1] was 0.995 µM; in [2], 0.315 µM; in series [3] it was 0.016 µM.

As to `C[C@@H]1SCc2ncnc(N3CCN(C(=O)[C@H](N)Cc4ccc(Cl)c(F)c4)CC3)c21`, the half-inhibitory concentration (IC50) was determined as 0.176 µM in series [1], 0.008 µM in series [2] and 0.002 µM in [3].

Turning to `CC(C)NCC(Cc1ccc(Cl)c(F)c1)C(=O)N1CCN(c2ncnc3c2[C@H](C)SC3)CC1` (stereo partly specified), the IC50 in series [1] was found to be 0.092 µM; in series [2], 0.03 µM; in [3], 0.002 µM.

With `CCC1SCc2ncnc(N3CCN(C(=O)[C@H](N)Cc4ccc(Cl)cc4)CC3)c21` (stereo partly specified), the IC50 in series [1] is 1.2 µM; in [2] it was 0.052 µM; in series [3] it was 0.007 µM.

Take `C[C@@H]1SCc2ncnc(N3CCN(C(=O)C(Cc4ccc(Cl)c(F)c4)CC(C)(C)N)CC3)c21` (stereo partly specified): the concentration for half-maximal inhibition (IC50) in series [1] amounted to 0.587 µM; in series [2] it was 0.063 µM; in series [3], 0.007 µM.

For the compound `C[C@H]1SCc2ncnc(N3CCN(C(=O)[C@H](N)Cc4ccc(Cl)cc4)CC3)c21`, the values for the IC50 in series [1], in series [2] and in series [3] were 18.5 µM, 1.71 µM and 0.26 µM, respectively.

Regarding `N[C@H](Cc1ccc(Cl)cc1)C(=O)N1CCN(c2ncnc3c2CS(=O)(=O)C3)CC1`, the figures for the IC50 in series [1], in series [2] and in series [3] were 21 µM, 1.3 µM and 0.052 µM, respectively.

As for `CC(C)NCC(C(=O)N1CCN(c2ncnc3c2C(C)OC3)CC1)c1ccc(Cl)cc1` (stereo unspecified), the Ratio IC50 in series [4] is 3.

`C[C@@H]1SCc2ncnc(N3CCN(C(=O)[C@H](N)Cc4c[nH]c5ccccc45)CC3)c21`: the half-inhibitory concentration (IC50) in series [1] worked out at 3.63 µM.

Take `C[C@@H]1SCc2ncnc(N3CCN(C(=O)C(Cc4ccc(Cl)cc4)C4(N)CC4)CC3)c21` (stereo partly specified): the concentration for half-maximal inhibition (IC50) in series [1] is 2.47 µM; in series [2], 0.308 µM; in series [3], 0.042 µM.

On to `CC(C)NCC(Cc1ccc(Cl)c(F)c1)C(=O)N1CCN(c2ncnc3c2[C@H](C)OC3)CC1` (stereo partly specified), for which the results for the IC50 in series [1], in series [2] and in series [3] were 0.315 µM, 0.088 µM and 0.006 µM, respectively.

`Cc1ccc(CC(CNC(C)C)C(=O)N2CCN(c3ncnc4c3[C@H](C)SC4)CC2)cc1` (stereo partly specified): the values for the 50% inhibitory concentration (IC50) in series [1], in series [2] and in series [3] were 0.216 µM, 0.101 µM and 0.003 µM, respectively.

In the case of `C[C@@H]1OCc2ncnc(N3CCN(C(=O)[C@H](N)Cc4ccc(Cl)cc4)CC3)c21`, the IC50 in series [1] amounted to 0.615 µM; in series [2] it was 0.061 µM; in [3], 0.007 µM.

What is called inhibition is how much of the control response was suppressed. `CC(C)NCC(Cc1ccc(Cl)cc1)C(=O)N1CCN(c2ncnc3c2[C@H](C)SC3)CC1` (stereo partly specified): the inhibition in series [5], in series [6] and in series [7] was more than 50% each time. Further, the IC50 came out at 0.159 µM in series [1], 0.08 µM in series [2] and 0.003 µM in [3].

Usually inhibition in vivo stands for how much of the control response was suppressed. As a reminder, the bioavailability is dose-corrected exposure relative to a reference, in per cent. Broadly, the AUC is the area under the concentration-time curve, a measure of exposure. Broadly, the clearance is a measure of how efficiently the substance is removed, as volume per time. As for `CC(C)NC[C@H](Cc1ccc(Cl)cc1)C(=O)N1CCN(c2ncnc3c2[C@H](C)SC3)CC1`, the Activity result in the series on Plasma [8] is reported as “Active”; with PC-3 [10], 42%; in the series with Plasma [13], “Active”; in the series on PC-3 [14] it was 84%; with PC-3 [17] it was 15%; in the series with Plasma [19], “Active”. Also, in the series on Plasma [21], the result was Active. Moreover, the inhibition in vivo at 100 mg/kg in the series with PC-3 [9] worked out at 61%. In series [11], the fraction unbound is 0.3. This compound also registered a bioavailability in series [12] of more than 100%. Moreover, the half-maximal inhibitory concentration (IC50) in series [1] stood at 0.137 µM; in series [2] it was 0.035 µM; in series [3], 0.001 µM. The inhibition in vivo at 50 mg/kg in series [15] was 60%; in [16], 85%. The values for the inhibition in vivo at 200 mg/kg in series [18] and in series [23] were 83% and 65%, respectively. In [20], this compound displayed an AUC of 56200 ng·h/mL. For the same compound, in series [22], the clearance was 94 mL/min/kg.

As for `C[C@@H]1OCc2ncnc(N3CCN(C(=O)C(Cc4ccc(Cl)c(F)c4)CC(C)(C)N)CC3)c21` (stereo partly specified), the IC50 in [1] was 0.592 µM; in [2], 0.091 µM; in series [3] it was 0.018 µM.

Consider `CC(C)NC[C@@H](Cc1ccc(Cl)cc1)C(=O)N1CCN(c2ncnc3c2[C@H](C)SC3)CC1`, for which the IC50 in series [2] came out at 5.62 µM; in series [3], 0.127 µM.

For `C[C@@H]1SCc2ncnc(N3CCN(C(=O)[C@H](N)Cc4ccc(Cl)cc4)CC3)c21`, the IC50 was 0.184 µM in series [1], 0.013 µM in series [2] and 0.001 µM in [3].

For `C[C@@H]1SCc2ncnc(N3CCN(C(=O)[C@H](N)Cc4ccc(F)c(F)c4)CC3)c21`, the IC50 in [1] worked out at 0.602 µM; in series [2], 0.03 µM; in series [3], 0.004 µM.

As to `CC(C)NC[C@H](Cc1ccc(Cl)cc1)C(=O)N1CCN(c2ncnc3c2[C@H](C)OC3)CC1`, the inhibition in series [5], in series [6] and in [7] was more than 50% each time. Further, the IC50 in [1] came to 0.125 µM; in [2], 0.052 µM; in series [3], 0.003 µM.

`CC(C)NCC(C(=O)N1CCN(c2ncnc3c2C(C)SC3)CC1)c1ccc(Cl)cc1` (stereo unspecified): the Ratio IC50 in series [24] was 5.

Turning to `Cc1c[nH]c2ncnc(N3CCN(C(=O)[C@H](N)Cc4ccc(F)cc4)CC3)c12`, the concentration for half-maximal inhibition (IC50) in series [1] came out at 0.16 µM; in series [2] it was 0.006 µM.

Take `N[C@H](Cc1ccc(Cl)cc1)C(=O)N1CCN(c2ncnc3c2CSC3)CC1`: the IC50 in series [1] was found to be 3.85 µM; in [2] it was 0.223 µM; in series [3], 0.022 µM.
